These results are taken from paper PMC5483892 (Journal of Medicinal Chemistry, 2017).

The target of this data set is ATX (full length human β form with a C-terminal 6-His tag) (Homo sapiens, UniProt Q13822). Type of data set: biochemical. Conditions: for LE (ligand efficiency): LE = −RTpKi/nb heavy atoms; for LE (ligand efficiency) / LLE (lipophilic ligand efficiency): from concentration response pIC50; for LLE (lipophilic ligand efficiency): LLE = pIC50 – cLogP; for affinities within fold of each other: BAL hits 16, 19 and 22 compared with each other.

Each structure is given as a SMILES string.

In the case of `OB(O)c1ccc2cc[nH]c2c1` [Compound 1], the “LE (ligand efficiency)” value was determined as 0.65 and the “LLE (lipophilic ligand efficiency)” value amounted to 4.4.
The like results for `O=C(O)c1ccc2cc[nH]c2c1` [Compound 2] were, in that order, 0.35 and 2.8.
For `OB(O)c1ccc2nonc2c1` [Compound 3] the same measures were 0.57 and 3.8.
For `Oc1ccc2nonc2c1` [Compound 4] the same measures were 0.50 and 3.5.
On to `OB(O)c1cccc(O)c1` [Compound 5], for which the “LE (ligand efficiency)” value is reported as 0.68 and the “LLE (lipophilic ligand efficiency)” value is on record as 3.7.
The like results for `NCc1cccc(O)c1` [Compound 6] were, in that order, 0.44 and 2.8.
The like results for `Nc1cccc(-c2nnc[nH]2)c1` [Compound 8] were, in that order, 0.41 and 3.4.
The like results for `OB(O)c1ccc(O)cc1` [Compound 9] were, in that order, 0.68 and 3.7.
For `Oc1ccc(-n2ccnc2)cc1` [Compound 10], the “LE (ligand efficiency)” value is on record as 0.37 and the “LLE (lipophilic ligand efficiency)” value was 2.5.
For `CS(=O)(=O)c1ccc(B(O)O)cc1` [Compound 11] the same measures were 0.55 and 4.9.
The like results for `CS(=O)(=O)c1ccc(O)cc1` [Compound 12] were, in that order, 0.40 and 2.9.
The like results for `COc1ccc(B(O)O)cc1` [Compound 13] were, in that order, 0.66 and 3.6.
On to `OB(O)c1ccccc1` [Compound 14, phenyl boronic acid], for which the “LE (ligand efficiency)” value stood at 0.76 and the “LLE (lipophilic ligand efficiency)” value amounted to 3.7.
The like results for `COc1ccccc1B(O)O` [Compound 15] were, in that order, 0.67 and 3.8.
For the compound `OB(O)c1ccccc1OCc1cccc(Cl)c1` [Compound 16], the “affinities within fold of each other” value is not above 3 fold, the “LE (ligand efficiency)” value is listed as 0.45 and the “LLE (lipophilic ligand efficiency)” value came out at 3.5. Moreover, the increase in potency (relative to phenyl boronic acid 14) is listed as 10 fold.
As to `COc1cccc(B(O)O)c1` [Compound 17], the “LE (ligand efficiency)” value worked out at 0.58 and the “LLE (lipophilic ligand efficiency)” value came out at 2.9.
As for `OCc1cccc(B(O)O)c1` [Compound 18], the “LLE (lipophilic ligand efficiency)” value stood at 3.6.
On to `COCCc1ccc(OCc2cccc(B(O)O)c2)cc1` [Compound 19], for which the “affinities within fold of each other” value is given as not above 3 fold, the “LE (ligand efficiency)” value amounted to 0.41 and the “LLE (lipophilic ligand efficiency)” value is given as 3.3. For the same compound, the “more potent than 18” value (relative to 18) is 25 fold.
Take `N#Cc1ccc(B(O)O)cc1` [Compound 21]: the “LE (ligand efficiency)” value is recorded as 0.66.
For the compound `COc1cc(COc2ccc(B(O)O)cc2Cl)cc(OC)c1` [Compound 22], the “affinities within fold of each other” value is given as not above 3 fold, the “LE (ligand efficiency)” value was 0.40 and the “LLE (lipophilic ligand efficiency)” value is 3.4.
Take `N#Cc1cccc(B(O)O)c1` [Compound 26]: the “LE (ligand efficiency)” value was 0.58.
